In one test the target is T1, human NPY Y2 receptor (Homo sapiens, UniProt P49146).
T1 construct: host or cells: HEK-293 cells that also express a cAMP-sensitive calcium channel
T1 sequence (P49146 1-381): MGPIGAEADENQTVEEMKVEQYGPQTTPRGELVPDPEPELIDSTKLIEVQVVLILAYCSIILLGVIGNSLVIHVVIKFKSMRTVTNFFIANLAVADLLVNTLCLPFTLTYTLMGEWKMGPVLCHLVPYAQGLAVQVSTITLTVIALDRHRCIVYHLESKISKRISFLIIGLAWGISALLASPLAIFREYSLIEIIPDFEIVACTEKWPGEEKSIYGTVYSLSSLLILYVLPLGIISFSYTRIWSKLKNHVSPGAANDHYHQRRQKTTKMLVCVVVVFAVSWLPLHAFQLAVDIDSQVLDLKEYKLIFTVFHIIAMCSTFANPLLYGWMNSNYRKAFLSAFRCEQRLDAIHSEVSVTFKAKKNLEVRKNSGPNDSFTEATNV
The experiment in a line: Actone functional potency assay (Y2 in vitro potency, whole cell). The test is classed as cell-based. From the text: The purpose of this example is to test the activity, or potency, of the PYY compounds in vitro. The Y2 in vitro potency is the measure of the activation of the human Y2 receptor subtype in a whole cell assay.
Actone Functional Potency Assay
The Neuropeptide Y (NPY) receptors are Gi-coupled seven trans-membrane receptors that mainly signal through the cAMP dependent pathway by inhibiting adenylate cyclase activity which results in a decrease of cAMP production from ATP. The Actone assay is based on a modified calcium channel that has a selective binding for cAMP, resulting in cellular calcium influx, detected by a calcium responsive dye. In order to measure decreased levels of cAMP, as result of NPY receptor activation, the β1/β2-adrenoreceptor agonist, isoproterenol, is added to activate adenylate cyclase and increases cAMP levels in the cell. Decreased cellular calcium concentrations, reflecting a decrease of cAMP levels due to NPY receptor activation, is detected as a decrease in fluorescence from the calcium sensitive dye.

The target in another test is T2, human Y1 receptor (Homo sapiens, UniProt P25929).
T2 construct: expressed in transfected cells; host or cells: BHK-21 clone 6-482-8, IPTG-induced (membrane preparation)
T2 sequence (P25929 1-384): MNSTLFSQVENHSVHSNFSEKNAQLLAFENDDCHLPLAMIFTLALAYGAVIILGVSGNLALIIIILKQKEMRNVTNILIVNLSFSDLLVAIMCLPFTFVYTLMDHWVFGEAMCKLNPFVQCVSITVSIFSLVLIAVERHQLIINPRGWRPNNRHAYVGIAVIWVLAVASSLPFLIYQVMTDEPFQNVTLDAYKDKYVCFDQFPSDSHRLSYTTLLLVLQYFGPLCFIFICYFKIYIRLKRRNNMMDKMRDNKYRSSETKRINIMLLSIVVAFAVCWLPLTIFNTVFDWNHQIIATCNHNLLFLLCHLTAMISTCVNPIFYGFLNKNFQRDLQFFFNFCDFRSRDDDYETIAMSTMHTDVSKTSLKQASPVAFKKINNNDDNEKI
The experiment in a line: Scintillation proximity assay (SPA) receptor binding, Y1. The method, then: (§1) The purpose of this example is to test the in vitro binding of the PYY compounds to the Y1, Y2, Y4 and Y5 receptor subtypes, respectively. The receptor binding affinity is a measure of affinity of a compound for the human Y1, Y2, Y4 and Y5 receptor subtypes, respectively.
(§2) Scintillation Proximity Assay (SPA)
(§3) NPY-Receptor Expressing Cell Lines.
(§4) All cells were cultured at +37° C. in a humidified atmosphere with 5% CO2. […] CHO-K1 cells stably expressing the human Y2 receptor (P49146, NPY2R_HUMAN, Uniprot) were cultured in DMEM F-12 with 10% FBS, 1% P/S, 150 μg/ml Hygromycin B and 10 μg/ml Puromycin antibiotic. CHO-K1 cells stably expressing the human Y4 receptor (P50391, NPY4R_HUMAN, Uniprot) were cultured in DMEM F-12 with 10% FBS, 1% P/S, 10 μg/ml Puromycin. HEK-293 cells stably expressing the human Y5 receptor (Q15761, NPY5R_HUMAN, Uniprot) were cultured in DMEM F-12 medium containing 10% FBS, 1% Penicillin-Streptomycin, 250 μg/ml G418 and 1 μg/ml puromycin.
(§5) The homogenate was centrifuged at 35000 g using an ultracentrifuge for 10 minutes at +4° C. and the supernatant was discarded and fresh homogenization buffer added. Homogenization of the pellet was repeated a total of three times.
(§6) Human Y receptor SPA binding assay were performed in white 96-well plates in a total volume of 200 μl per well.
(§7) Plates were sealed and incubated at +25° C. for 2 hours in a plate shaker set at 400 rpm and thereafter centrifuged at 1500 rpm for 10 minutes prior to reading of luminescence on a microplate scintillation and luminescence counter. […] Displacement of radioligand was measured as reduction in luminescence and IC50 values were calculated by nonlinear regression analysis of sigmoidal dose-response curves.

The target in another test is T3, human Y4 receptor (Homo sapiens, UniProt P50391).
T3 construct: expressed in transfected cells; host or cells: CHO-K1 (membrane preparation)
T3 sequence (P50391 whole entry): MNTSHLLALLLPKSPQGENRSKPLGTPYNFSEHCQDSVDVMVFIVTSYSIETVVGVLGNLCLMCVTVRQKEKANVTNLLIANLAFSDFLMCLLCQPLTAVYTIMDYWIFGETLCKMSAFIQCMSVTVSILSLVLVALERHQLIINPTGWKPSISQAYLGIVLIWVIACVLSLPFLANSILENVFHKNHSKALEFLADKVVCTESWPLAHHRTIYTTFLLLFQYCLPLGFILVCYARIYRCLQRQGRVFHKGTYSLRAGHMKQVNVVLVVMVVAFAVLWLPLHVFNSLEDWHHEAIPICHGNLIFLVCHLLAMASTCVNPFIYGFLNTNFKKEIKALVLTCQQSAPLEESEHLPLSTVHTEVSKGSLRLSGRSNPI
The experiment in a line: Scintillation proximity assay (SPA) receptor binding, Y4. The conditions noted are these: membranes of CHO-K1 cells, [125I]-Pancreatic Polypeptide. The method, then:
as §1, §2, §3, §4, §5, §6, §7

Data on 4 compounds can be found in patent US10005824B2, “Selective PYY compounds and uses thereof” (Novo Nordisk A/S, priority 2015, dated 2018).

Like-named read-outs stand apart in the source and are kept apart here. Where only a bound is given, the exact number is not on record here.

Consider `CC(C)CC(=O)N[C@@H](CCCNC(=N)N)C(=O)N1CCC[C@H]1C(=O)N[C@@H](CCC(=O)O)C(=O)N[C@@H](CCCCNC(=O)CC[C@H](NC(=O)CCCCCCCCCCCCCCCCC(=O)O)C(=O)O)C(=O)N1CCC[C@H]1C(=O)N[C@H](C(=O)N[C@@H](CCC(=O)O)C(=O)N[C@@H](CC(=O)O)C(=O)N[C@@H](C)C(=O)N[C@@H](CO)C(=O)N1CCC[C@H]1C(=O)N[C@@H](CCC(=O)O)C(=O)N[C@@H](CCC(=O)O)C(=O)N[C@@H](CC(C)C)C(=O)N[C@@H](CCC(N)=O)C(=O)N[C@@H](CCCNC(=N)N)C(=O)N[C@@H](Cc1ccc(O)cc1)C(=O)N[C@@H](Cc1ccc(O)cc1)C(=O)N[C@@H](CCC(N)=O)C(=O)N[C@@H](CO)C(=O)N[C@@H](CC(C)C)C(=O)N[C@@H](CCCNC(=N)N)C(=O)N[C@@H](Cc1c[nH]cn1)C(=O)N[C@@H](Cc1ccc(O)cc1)C(=O)N[C@@H](Cc1ccc(O)cc1)C(=O)N[C@@H](CC(N)=O)C(=O)N[C@@H](Cc1c[nH]c2ccccc12)C(=O)N[C@@H](CC(C)C)C(=O)N[C@H](C(=O)N[C@@H](CCCNC(=N)N)C(=O)N[C@@H](CCC(N)=O)C(=O)N[C@@H](CCCNC(=N)N)C(=O)N[C@@H](Cc1ccc(O)cc1)C(N)=O)[C@@H](C)O)[C@@H](C)O` [Compound 43, N{alpha-4}-(3-Methylbutanoyl)-N{Epsilon-7}-[(4S)-4-carboxy-4-(17-carboxy-heptadecanoylamino)butanoyl]-[Arg4,Lys7,Thr9,Gln18,Gln22,Tyr28,Trp30,Leu31]hPYY(4-36)], for which the EC50 at human NPY Y2 receptor was found to be 0.00077 µM. Also, the Ki at human Y1 receptor is > 10 µM.

Consider `CC(C)CC(=O)N[C@@H](CCCNC(=N)N)C(=O)N1CCC[C@H]1C(=O)N[C@@H](CCC(=O)O)C(=O)N[C@@H](C)C(=O)N1CCC[C@H]1C(=O)NCC(=O)N[C@@H](CCCCNC(=O)COCCOCCNC(=O)COCCOCCNC(=O)CC[C@H](NC(=O)CCCCCCCCCCCCCCCCC(=O)O)C(=O)O)C(=O)N[C@@H](CC(=O)O)C(=O)N[C@@H](C)C(=O)N[C@@H](CO)C(=O)N1CCC[C@H]1C(=O)N[C@@H](CCC(=O)O)C(=O)N[C@@H](CCC(=O)O)C(=O)N[C@@H](CC(C)C)C(=O)N[C@@H](CCC(N)=O)C(=O)N[C@@H](CCCNC(=N)N)C(=O)N[C@@H](Cc1ccc(O)cc1)C(=O)N[C@@H](Cc1ccc(O)cc1)C(=O)N[C@@H](CCC(=O)O)C(=O)N[C@@H](CO)C(=O)N[C@@H](CC(C)C)C(=O)N[C@@H](CCCNC(=N)N)C(=O)N[C@@H](Cc1c[nH]cn1)C(=O)N[C@@H](Cc1ccc(O)cc1)C(=O)N[C@@H](Cc1ccc(O)cc1)C(=O)N[C@@H](CC(N)=O)C(=O)N[C@@H](Cc1c[nH]c2ccccc12)C(=O)N[C@@H](CC(C)C)C(=O)N[C@H](C(=O)N[C@@H](CCCNC(=N)N)C(=O)N[C@@H](CCC(N)=O)C(=O)N[C@@H](CCCNC(=N)N)C(=O)N[C@@H](Cc1ccc(O)cc1)C(N)=O)[C@@H](C)O` [Compound 51, N{alpha-4}-(3-Methylbutanoyl)-N{Epsilon-10}-[2-[2-[2-[[2-[2-[2-[[(4S)-4-carboxy-4-(17-carboxyheptadecanoylamino)butanoyl]amino]ethoxy]ethoxy]acetyl]-amino]ethoxy]ethoxy]acetyl]-[Arg4,Lys10,Gln18,Glu22,Tyr28,Trp30,Leu31]-PYY(4-36)], for which the figures for the Ki on human Y1 receptor and at human Y4 receptor (Y4 Ki) were 2.41 µM and > 10 µM, respectively.

For `CC(C)CC(=O)N[C@@H](CCCNC(=N)N)C(=O)N1CCC[C@H]1C(=O)N[C@@H](CCC(=O)O)C(=O)N[C@@H](C)C(=O)N1CCC[C@H]1C(=O)NCC(=O)N[C@@H](CCCCNC(=O)COCCOCCNC(=O)COCCOCCNC(=O)CC[C@H](NC(=O)CCCCCCCCCCCCCCCCC(=O)O)C(=O)O)C(=O)N[C@@H](CC(=O)O)C(=O)N[C@@H](C)C(=O)N[C@@H](CO)C(=O)N1CCC[C@H]1C(=O)N[C@@H](CCC(=O)O)C(=O)N[C@@H](CCC(=O)O)C(=O)N[C@@H](CC(C)C)C(=O)N[C@@H](CCC(N)=O)C(=O)N[C@@H](CCCNC(=N)N)C(=O)N[C@@H](Cc1ccc(O)cc1)C(=O)N[C@@H](Cc1ccc(O)cc1)C(=O)N[C@@H](C)C(=O)N[C@@H](CCC(=O)O)C(=O)N[C@@H](CC(C)C)C(=O)N[C@@H](CCCNC(=N)N)C(=O)N[C@@H](Cc1c[nH]cn1)C(=O)N[C@@H](Cc1ccc(O)cc1)C(=O)N[C@@H](Cc1ccc(O)cc1)C(=O)N[C@@H](CC(N)=O)C(=O)N[C@@H](Cc1c[nH]c2ccccc12)C(=O)N[C@@H](CC(C)C)C(=O)N[C@H](C(=O)N[C@@H](CCCNC(=N)N)C(=O)N[C@@H](CCC(N)=O)C(=O)N[C@@H](CCCNC(=N)N)C(=O)N[C@@H](Cc1ccc(O)cc1)C(N)=O)[C@@H](C)O` [Compound 52, N{alpha-4}-(3-Methylbutanoyl)-N{Epsilon-10}-[2-[2-[2-[[2-[2-[2-[[(4S)-4-carboxy-4-(17-carboxyheptadecanoylamino)butanoyl]amino]ethoxy]ethoxy]acetyl]amino]-ethoxy]ethoxy]acetyl]-[Arg4,Lys10,Gln18,Glu23,Tyr28,Trp30,Leu31]-PYY(4-36)], the inhibition constant Ki at human Y1 receptor (membranes of BHK-21 cells, [125I]-PYY(1-36), read-out: Y1 Ki) is > 10 µM; at human Y4 receptor (read-out: Y4 Ki) it was 5.69 µM.

For the compound `CC(C)CC(=O)N[C@@H](CCCNC(=N)N)C(=O)N1CCC[C@H]1C(=O)N[C@@H](CCC(=O)O)C(=O)N[C@@H](C)C(=O)N1CCC[C@H]1C(=O)N1CCC[C@H]1C(=O)N[C@@H](CCCCNC(=O)CC[C@H](NC(=O)COCCOCCNC(=O)CC[C@H](NC(=O)CCCCCCCCCCCCCCCCC(=O)O)C(=O)O)C(=O)O)C(=O)N[C@@H](CC(=O)O)C(=O)N[C@@H](C)C(=O)N[C@@H](CO)C(=O)N1CCC[C@H]1C(=O)N[C@@H](CCC(=O)O)C(=O)N[C@@H](CCC(=O)O)C(=O)N[C@@H](CC(C)C)C(=O)N[C@@H](CCC(N)=O)C(=O)N[C@@H](CCCNC(=N)N)C(=O)N[C@@H](Cc1ccc(O)cc1)C(=O)N[C@@H](Cc1ccc(O)cc1)C(=O)N[C@@H](CCC(=O)O)C(=O)N[C@@H](CO)C(=O)N[C@@H](CC(C)C)C(=O)N[C@@H](CCCNC(=N)N)C(=O)N[C@@H](Cc1c[nH]cn1)C(=O)N[C@@H](Cc1ccc(O)cc1)C(=O)N[C@@H](Cc1ccc(O)cc1)C(=O)N[C@@H](CC(N)=O)C(=O)N[C@@H](Cc1c[nH]c2ccccc12)C(=O)N[C@@H](CC(C)C)C(=O)N[C@H](C(=O)N[C@@H](CCCNC(=N)N)C(=O)N[C@@H](CCC(N)=O)C(=O)N[C@@H](CCCNC(=N)N)C(=O)N[C@@H](Cc1ccc(O)cc1)C(N)=O)[C@@H](C)O` [Compound 54, N{alpha-4}-(3-Methylbutanoyl)-N{Epsilon-10}-[(4S)-4-carboxy-4-[[2-[2-[2-[[(4S)-4-carboxy-4-(17-carboxyheptadecanoylamino)butanoyl]amino]ethoxy]ethoxy]-acetyl]amino]butanoyl]-[Arg4,Pro9,Lys10,Gln18,Glu22,Tyr28,Trp30,Leu31]-PYY(4-36)], the EC50 on human NPY Y2 receptor turned out to be 0.0016 µM.
